# Test results from BindingDB's records for patent US10696638 (INDUSTRIAL TECHNOLOGY RESEARCH INSTITUTE, 2020).
# pIC50: −log10 of the molar value.
# Target: Rho-associated protein kinase 2 (Homo sapiens, UniProt O75116)
# Assay: ELISA Assay
# Procedure: ROCK Substrate Coated Plate (Part No 241601): One strip well 96-well plate pre-coated with recombinant MYPT1.Buffer: 25 mM Tris, pH 7.5, 10 mM MgCl2, 5 mM Glycerol-2-Phosphate, 0.1 mM Na3VO4; 1% DMSO; 2.5 mM DTT; (Enzyme: ROCK active-II) (Cell Biolabs, Catalog #STA-406, Part No. 241505) 0.1 ng/μl.ATP Solution (Part No. 241604): 100 mM ATP. Final concentration of ATP in reaction mixture: 250 μM.Anti-phospho-MYPT1 (Thr696) (Part No. 241603).Secondary Antibody, HRP Conjugate (Part No. 231003).Biotinylated substrate, diluted to 0.25 μM with buffer described above (without ATP).Steps:1. Purified kinase or cell lysate sample can be used directly in the kinase assay or further diluted with 1× Kinase Buffer. Each sample should be assayed in duplicate.2. Add 90 μL of the diluted active ROCK-II positive control or unknown ROCK samples to the wells of the substrate plate.3. Initiate the kinase reaction by adding 10 μL of the 10× Kinase Reaction Buffer containing DTT and ATP. Mix well.4. Cover with a plate cover and incubate the wells at 30° C. for 30-60 minutes with gentle agitation.5. Stop kinase reaction by flicking out the content or by adding 50 μL of 0.5M EDTA, pH 8.0, to each well.6. Remove the plate cover and empty wells. Wash microwell strips 3 times with 250 μL 1× Wash Buffer per well with thorough aspiration between each wash. After the last wash, empty wells and tap microwell strips on absorbent pad or paper towel to remove excess 1× Wash Buffer.7. Add 100 μL of the diluted anti-phospho-MYPT1 (Thr696) antibody to each well.8. Cover with the plate cover and incubate at room temperature for 1 hour on an orbital shaker.9. Remove the plate cover and empty wells. Wash the strip wells 3 times according to step 6 above.10. Add 100 μL of the diluted HRP-conjugated secondary antibody to each well.11. Cover with the plate cover and incubate at room temperature for 1 hour on an orbital shaker.12. Remove the plate cover and empty wells. Wash microwell strips 3 times according to step 6 above. Proceed immediately to the next step.13. Warm Substrate Solution to room temperature. Add 100 μL of Substrate Solution to each well, including the blank wells. Incubate at room temperature for 5-20 minutes on an orbital shaker.14. Stop the enzyme reaction by adding 100 μL of Stop Solution into each well, including the blank wells. Results should be read immediately (color will fade over time).15. Read absorbance of each microwell on a spectrophotometer using 450 nm as the primary wave length.
# Rho-associated protein kinase 2, sequence (O75116 whole entry): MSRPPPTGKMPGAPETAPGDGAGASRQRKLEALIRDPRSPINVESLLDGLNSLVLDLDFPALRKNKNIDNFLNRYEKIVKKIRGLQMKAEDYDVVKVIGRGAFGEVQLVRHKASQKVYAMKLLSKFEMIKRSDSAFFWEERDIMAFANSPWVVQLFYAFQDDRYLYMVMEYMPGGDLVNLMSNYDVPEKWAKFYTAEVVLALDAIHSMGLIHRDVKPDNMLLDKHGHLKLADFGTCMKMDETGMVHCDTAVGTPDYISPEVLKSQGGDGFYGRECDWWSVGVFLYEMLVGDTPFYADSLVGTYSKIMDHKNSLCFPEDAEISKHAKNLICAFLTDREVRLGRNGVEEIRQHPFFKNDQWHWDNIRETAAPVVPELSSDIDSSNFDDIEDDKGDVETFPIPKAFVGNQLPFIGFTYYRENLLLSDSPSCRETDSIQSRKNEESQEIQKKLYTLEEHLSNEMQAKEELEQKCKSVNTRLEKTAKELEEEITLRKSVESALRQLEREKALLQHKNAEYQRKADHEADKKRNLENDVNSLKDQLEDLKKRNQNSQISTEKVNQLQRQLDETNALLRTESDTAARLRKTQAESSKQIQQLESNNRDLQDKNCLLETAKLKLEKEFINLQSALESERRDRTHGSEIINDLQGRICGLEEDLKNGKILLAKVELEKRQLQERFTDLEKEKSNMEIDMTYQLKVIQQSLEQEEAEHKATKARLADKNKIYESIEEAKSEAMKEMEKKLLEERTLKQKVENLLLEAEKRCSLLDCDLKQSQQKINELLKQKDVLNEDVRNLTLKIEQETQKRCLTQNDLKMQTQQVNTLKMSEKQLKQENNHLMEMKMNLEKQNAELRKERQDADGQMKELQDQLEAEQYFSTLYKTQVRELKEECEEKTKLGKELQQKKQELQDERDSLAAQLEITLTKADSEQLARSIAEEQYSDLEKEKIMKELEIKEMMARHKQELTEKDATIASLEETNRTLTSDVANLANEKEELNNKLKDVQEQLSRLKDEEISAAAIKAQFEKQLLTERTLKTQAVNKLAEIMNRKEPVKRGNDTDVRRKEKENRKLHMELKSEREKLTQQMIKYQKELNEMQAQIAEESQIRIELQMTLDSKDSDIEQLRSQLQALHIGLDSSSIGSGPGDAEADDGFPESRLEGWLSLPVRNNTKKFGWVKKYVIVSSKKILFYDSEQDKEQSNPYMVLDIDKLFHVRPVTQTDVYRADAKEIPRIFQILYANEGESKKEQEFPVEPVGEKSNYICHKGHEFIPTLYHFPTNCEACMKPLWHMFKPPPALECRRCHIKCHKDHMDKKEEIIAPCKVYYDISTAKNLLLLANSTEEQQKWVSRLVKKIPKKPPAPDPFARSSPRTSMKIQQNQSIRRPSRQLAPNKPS
row,SMILES,pIC50
1,"CN(C)CCN(Cc1ccc(F)cc1)C(=O)Nc1ccc2cnccc2c1 [US10696638, Table 1.2]",< 6.00
2,"O=C(Nc1ccc2cnccc2c1)N[C@@H](CO)c1ccccc1 [US10696638, Table 1.6]",< 6.00

# The next lines start with the values.
row,pIC50,SMILES
1,< 6.00,"O=C(Nc1cccc2cnccc12)N[C@@H](CO)c1ccccc1 [US10696638, formula (I) 4]"
2,< 6.00,"CN(C)CCN(Cc1ccc(F)cc1)C(=O)Nc1cccc2cnccc12 [US10696638, formula (I) 5]"
3,< 6.00,"O=C(Nc1cccc2cnccc12)N(Cc1ccc(Cl)cc1)C1CCNCC1 [US10696638, formula (I) 9]"
